System: catalepsigenic effect
Test: Investigation into the catalepsigenic effect in rats
Assay type: in vivo, Wistar rats
Conditions: 2 mg.kg^-1, same study conditions (IP, rats, 30-minute interval)
Method: The catalepsigenic effect is investigated in rats via the intraperitoneal route. This test predicts the existence of side effects of extrapyramidal type. 6 groups of Wistar rats received an injection of the compounds of the invention and were then tested for their catalepsigenic activity after a 30-minute interval. Haloperidol is used as reference.

O=C(CCCN1CCC(O)(c2ccc(Cl)cc2)CC1)c1ccc(F)cc1 [haloperidol]
catalepsigenic effect: 95%
